Data: patent US8470892B2, “Method of inducing neovascularization” (priority 2010, dated 2013)

Assays:
[1] = system: complement system; test: Dependence of PEG-8 induced CNV on complement: depletion with Cobra Venom Factor; type: in vivo, mice
Experimental: To investigate dependence of PEG-8 induced CNV on complement system activation, the complement system in the mice was depleted by intraperitoneal administration of Cobra Venom Factor. Four groups of animals were used (n=5 mice in each group). Group 1 and 2 were treated intraperitoneal with 4 U of cobra venom factor as described in the inventors' previous publication for 2 days before and every day after subretinal injections. Group 3 and 4 were injected intraperitoneal with vehicle (0.9% Sodium Chloride).
The mice were then injected with subretinal PEG-8 and investigated at day 5 after treatment. […] RPE-choroids of these mice were stained for MAC by IHC and investigated flat mounts using confocal microscopy. Areas of high MAC deposition in animals treated with saline (FIG. 4B) were found but not in CVF treated group (FIG. 4C).

[2] = system: VEGF; test: VEGF levels by ELISA in posterior part of the eyes after PEG-8; type: in vivo, mice
[3] = system: complement system; test: Activation of the complement system by PEG-8 in serum and RPE-choroid; type: in vivo, mice
Experimental: Activation of the complement system by PEG-8 was also studied in the RPE-choroid and in the blood. PEG-8 or saline was injected subretinally and animals were sacrificed at day 1, 3 and 5 after treatment. Total complement activation was studied in the serum. Levels of C3 split products and MAC were investigated in RPE-choroid tissue. […] PEG-8 and saline injected animals at day 3 and 5 had the same levels of total C3 (43 kDa and 23 kDA), but levels of C3 (43 kDa) were higher in PEG-8 treated animals compared to saline injected mice (FIGS. 5C, D).

[4] = system: Male C57BL/6 mice; test: CNV induction by subretinal injection of PEG-8 (FITC-dextran perfused RPE-choroid-sclera flat mounts); type: in vivo
Experimental: Male C57BL/6 mice (7-9 weeks old) were anesthetized with Ketamine (80 mg/kg) and Xylazine (20 mg/kg) prior to subretinal injection. One eye was decompressed with 27G needle by inserting the needle through the limbus and sclera. Microinjector UMP3 equipped with Nanofil syringe 100 μL and 33G blunt needle (Word Precision Instruments) was used for injections. The needle was inserted into the incision created by decompression. Movement of the needle was stopped when light resistance was felt by operator. Solutions (single injection of 2 μL) were injected slowly for 5 seconds in the subretinal space. All manipulations were performed under visual control using microscope. Detachment of the retina was visible through the lens. The second eyes of mice were not injected.
To investigate dose dependent effect of PEG-8 (Polyethylene glycol 400) the inventors divided the animals into 7 groups: one control group (n=3 mice) which was not treated at all, group 2 (n=3 mice) received a single subretinal injection of vehicle (2 μL of 0.9% sterile sodium chloride), and five experimental groups which were injected with different doses of PEG-8: 2.0 mg, 1.0 mg, 0.5 mg, 0.25 mg and 0.125 mg. PEG-8 was dissolved in vehicle before injection. Doses of PEG-8 were delivered to the one experimental eye in 2 μL respectively. To determine optimal dose of PEG-8, the inventors performed histological examination and investigation of flat mounted RPE-choroid-sclera complexes after perfusion of animals with FITC-dextran solution at day 14 after injection.
To investigate the time course of CNV after PEG-injection, the animals were injected with 1.0 mg of PEG-8 subretinally and 5 mice from each group were sacrificed at day 1, 3, 5, 7, 14, 21, 28, and 42 post-injection. […] CNV reached maximal size at day 5 and was present until at least day 42.
To evaluate the CNV size, the animals were perfused through their heart with 0.75 ml of phosphate-buffered saline (PBS) containing 50 mg/ml of fluorescein-labeled dextran (FITC-Dextran, 2 million average mw) before they were sacrificed. The eyes were harvested and fixed for 4 hours in 10% phosphate buffered formalin and RPE-choroid-sclera flat mounts were prepared. The RPE-choroid-sclera complexes were mounted in ProLong Antifade reagent with the sclera facing down and were examined under a ZEISS LSM 510 laser confocal microscope.
Confocal microscopy of flat mounted RPE-choroids perfused with FITC-dextran was performed and investigated with semi thin (1 μm) embedded sections at day 5 after injection when CNV was fully developed. […] After PEG-8 injection, CNV was located between two layers of RPE cells in subretinal space (FIGS. 3B, D, F). No vessels originated from retina was found (FIG. 3D). 5 μm paraffin section of control (saline) and PEG-8 injected mice at day 1 were investigated, 3 and 5 after treatment. RPE cells in control groups formed single layer of cells and endothelial cells were found within choroid (FIG. 3G). Starting from day 1 after PEG-8 treatment, zones of affected RPE cell structure were discovered with increased size, irregular shape and presence of space between neighboring RPE cells (FIG. 3H). Isolectin-IB4 positively labeled cells located between affected RPE cells were found at day 1, 3 and 5 after injection (FIGS. 3H-J). Isolectin-IB4 positive had contact with choroidal Isolectin-IB4 positive capillaries and formed vessels in subretinal tissue between existing and newly formed RPE cell layers (FIG. 3J).

[5] = subretinal PEG-8, day 1, 3 and 5

CVF
total complement activity in serum vs saline injected animals ([1]; 4 U CVF intraperitoneal, day 5 after subretinal PEG-8, p<0.05): significantly reduced
reduction of CNV size (area of FITC-dextran perfused vessels) ([1]; CVF intraperitoneal, PEG-8 induced CNV, day 5, p<0.05): 3 fold
MAC positive fluorescence in RPE-choroid, saline treated animals compared to CVF injected mice ([1]; IHC flat mounts, day 5, p<0.05): significantly higher

Polyethylene glycol 400 [PEG-8]
VEGF in intra- and extracellular fraction of proteins from posterior part of the eyes [2]: increase of VEGF
MAC levels in RPE-choroid vs saline treated animals (Western blotting) ([3]; all investigated time points (day 1, 3, 5)): approximately three fold higher
C3 split products levels in RPE-choroid vs saline injected mice ([3]; day 1 post-injection only): three-fold increase
levels of C3 (43 kDa) vs saline injected mice ([3]; day 3 and 5): higher
levels of total C3 (43 kDa and 23 kDA) vs saline ([3]; day 3 and 5): same levels
alternative complement activity in mouse serum [3, 5]: did not affect
total complement activity in mouse serum [3, 5]: did not affect
CNV size and frequency compared between doses ([4]; 1.0 mg dose, day 14): largest size and frequency
frequency of CNV ([4]; 1.0 mg subretinal, day 14 after injection): 4.4 sites of CNV per eye
CNV present until ([4]; 1.0 mg subretinal, time course): ≥ 42 days
first signs of CNV detected ([4]; 1.0 mg subretinal, time course): 3 days
time at which CNV reached maximal size ([4]; 1.0 mg subretinal, time course): 5 days
damage of RPE-choroid after subretinal injection ([4]; compared to laser treatment or surgical procedures): much smaller
occurrence of CNV ([4]; doses 2.0, 1.0, 0.5, 0.25 and 0.125 mg subretinal, day 14): CNV in all investigated groups
